Source: patent US20250346592A1 (Celgene Corporation, priority 2022, published 2025)

What follows are molecules tested against hPAD4 enzyme (Homo sapiens (Human), UniProt Q9UM07) (assay: RFMS2 assay (RapidFire mass spectrometry, TSTGGRQGSHH peptide substrate)). Conditions: 35 nM recombinant human PAD4, 500 μM TSTGGRQGSHH peptide, 30 minutes at room temperature; read-out: RFMS 2 IC50.
Format: biochemical
Outline: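 IC50 derived from RapidFire LC-MS/MS (positive ESI MRM) of substrate versus product after a 30 min room-temperature reaction stopped with 10% formic acid. Reaction contained 35 nM human PAD4, 500 μM peptide, 2 mM CaCl2, 5 mM DTT at pH 7.4, and compounds diluted 3-fold from 20 μM.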

hPAD4 enzyme, sequence (Q9UM07 whole entry): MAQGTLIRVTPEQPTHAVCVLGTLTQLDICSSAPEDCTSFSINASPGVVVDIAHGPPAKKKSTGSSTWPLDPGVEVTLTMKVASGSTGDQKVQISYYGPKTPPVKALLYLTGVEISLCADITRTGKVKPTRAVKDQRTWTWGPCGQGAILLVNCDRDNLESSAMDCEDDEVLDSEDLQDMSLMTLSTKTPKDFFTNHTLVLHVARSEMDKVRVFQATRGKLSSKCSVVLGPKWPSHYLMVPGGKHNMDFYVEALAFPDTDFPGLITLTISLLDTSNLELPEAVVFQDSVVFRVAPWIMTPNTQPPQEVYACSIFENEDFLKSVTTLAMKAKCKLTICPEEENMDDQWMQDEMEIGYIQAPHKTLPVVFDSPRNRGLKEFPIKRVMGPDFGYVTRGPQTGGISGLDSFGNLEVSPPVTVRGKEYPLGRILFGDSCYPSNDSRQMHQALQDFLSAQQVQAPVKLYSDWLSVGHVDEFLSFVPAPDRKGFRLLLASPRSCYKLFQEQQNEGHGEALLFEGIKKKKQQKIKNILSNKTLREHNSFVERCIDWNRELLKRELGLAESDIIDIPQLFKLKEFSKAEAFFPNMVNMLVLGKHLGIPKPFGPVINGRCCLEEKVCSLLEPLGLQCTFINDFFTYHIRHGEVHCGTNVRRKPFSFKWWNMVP

| Structure (SMILES) | IC50 |
| --- | --- |
| CCn1c(-c2nc3cc4c(cc3n2C)CCN(C[C@H](N)CF)C4=O)cc2ccc(OC)nc21 [Example 108, (S)-6-(2-amino-3-fluoropropyl)-2-(1-ethyl-6-methoxy-1H-pyrrolo[2,3-b]pyridin-2-yl)-1-methyl-1,6,7,8-tetrahydro-5H-imidazo[4,5-g]isoquinolin-5-one] | 501 to 1000 nM |
| COc1cccc2cc(-c3nc4cc5c(cc4n3C)CCN(C[C@H](N)CF)C5=O)n(C(C)C)c12 [Example 109] | > 1000 nM |
| COCCn1c(-c2nc3cc4c(cc3n2C)CCN(C[C@H](N)CF)C4=O)cc2ccnc(OC)c21 [Example 110, (S)-6-(2-amino-3-fluoropropyl)-2-(7-methoxy-1-(2-methoxyethyl)-1H-pyrrolo[2,3-c]pyridin-2-yl)-1-methyl-1,6,7,8-tetrahydro-5H-imidazo[4,5-g]isoquinolin-5-one] | > 1000 nM |
| COc1cccc2cc(-c3nc4cc5c(cc4n3C)CCN(C[C@H](N)CF)C5=O)n(Cc3ccno3)c12 [Example 111, (S)-6-(2-amino-3-fluoropropyl)-2-(1-(isoxazol-5-ylmethyl)-7-methoxy-1H-indol-2-yl)-1-methyl-1,6,7,8-tetrahydro-5H-imidazo[4,5-g]isoquinolin-5-one] | 11 to 100 nM |
| COc1ccc2cc(-c3nc4cc5c(cc4n3C)CCN(C[C@H](N)CF)C5=O)n(Cc3ccno3)c2c1 [Example 112, (S)-6-(2-amino-3-fluoropropyl)-2-(1-(isoxazol-5-ylmethyl)-6-methoxy-1H-indol-2-yl)-1-methyl-1,6,7,8-tetrahydro-5H-imidazo[4,5-g]isoquinolin-5-one] | 101 to 500 nM |
| COc1cccc2cc(-c3nc4cc5c(cc4n3C)CCN(C[C@H](N)CF)C5=O)n(Cc3cn(C)cn3)c12 [Example 114, (S)-6-(2-amino-3-fluoropropyl)-2-(7-methoxy-1-((1-methyl-1H-imidazol-4-yl)methyl)-1H-indol-2-yl)-1-methyl-1,6,7,8-tetrahydro-5H-imidazo[4,5-g]isoquinolin-5-one] | 501 to 1000 nM |
| COc1cccc2cc(-c3nc4cc5c(cc4n3C)CCN(C[C@H](N)CF)C5=O)n(Cc3cc[nH]n3)c12 [Example 115, (S)-2-(1-((1H-pyrazol-3-yl)methyl)-7-methoxy-1H-indol-2-yl)-6-(2-amino-3-fluoropropyl)-1-methyl-1,6,7,8-tetrahydro-5H-imidazo[4,5-g]isoquinolin-5-one] | 101 to 500 nM |
| COc1cccc2cc(-c3nc4cc5c(cc4n3C)CCN(C[C@H](N)CF)C5=O)n(Cc3nnco3)c12 [Example 116, (S)-2-(1-((1,3,4-oxadiazol-2-yl)methyl)-7-methoxy-1H-indol-2-yl)-6-(2-amino-3-fluoropropyl)-1-methyl-1,6,7,8-tetrahydro-5H-imidazo[4,5-g]isoquinolin-5-one] | 101 to 500 nM |
| COc1cccc2cc(-c3nc4cc5c(cc4n3C)CCN(C[C@H](N)CF)C5=O)n(Cc3cnco3)c12 [Example 117, (S)-6-(2-amino-3-fluoropropyl)-2-(7-methoxy-1-(oxazol-5-ylmethyl)-1H-indol-2-yl)-1-methyl-1,6,7,8-tetrahydro-5H-imidazo[4,5-g]isoquinolin-5-one] | 101 to 500 nM |
| COc1cccc2cc(-c3nc4cc5c(cc4n3C)CCN(C[C@H](N)CF)C5=O)n(Cc3ccns3)c12 [Example 118, (S)-6-(2-amino-3-fluoropropyl)-2-(1-(isothiazol-5-ylmethyl)-7-methoxy-1H-indol-2-yl)-1-methyl-1,6,7,8-tetrahydro-5H-imidazo[4,5-g]isoquinolin-5-one] | 11 to 100 nM |
| COc1cccc2cc(-c3nc4cc5c(cc4n3C)CCN(C[C@H](N)CF)C5=O)n(Cc3ncno3)c12 [Example 120, (S)-2-(1-((1,2,4-oxadiazol-5-yl)methyl)-7-methoxy-1H-indol-2-yl)-6-(2-amino-3-fluoropropyl)-1-methyl-1,6,7,8-tetrahydro-5H-imidazo[4,5-g]isoquinolin-5-one] | 101 to 500 nM |
| Cn1c(-c2cc3cccnc3n2Cc2ccno2)nc2cc3c(cc21)CCN(C[C@H](N)CF)C3=O [Example 121, (S)-6-(2-amino-3-fluoropropyl)-2-(1-(isoxazol-5-ylmethyl)-1H-pyrrolo[2,3-b]pyridin-2-yl)-1-methyl-1,6,7,8-tetrahydro-5H-imidazo[4,5-g]isoquinolin-5-one] | > 1000 nM |
| COc1cccc2cc(-c3nc4cc5c(cc4n3C)CCN(C[C@H](N)CF)C5=O)n(Cc3ncc(C)o3)c12 [Example 125, (S)-6-(2-amino-3-fluoropropyl)-2-(7-methoxy-1-((5-methyloxazol-2-yl)methyl)-1H-indol-2-yl)-1-methyl-1,6,7,8-tetrahydro-5H-imidazo[4,5-g]isoquinolin-5-one] | 101 to 500 nM |
| COc1cccc2cc(-c3nc4cc5c(cc4n3C)CCN(C[C@H](N)CF)C5=O)n(Cc3cccnn3)c12 [Example 126, (S)-6-(2-amino-3-fluoropropyl)-2-(7-methoxy-1-(pyridazin-3-ylmethyl)-1H-indol-2-yl)-1-methyl-1,6,7,8-tetrahydro-5H-imidazo[4,5-g]isoquinolin-5-one] | 101 to 500 nM |
| COc1cccc2cc(-c3nc4cc5c(cc4n3C)CCN(C[C@H](N)CF)C5=O)n(Cc3cnccn3)c12 [Example 128, (S)-6-(2-amino-3-fluoropropyl)-2-(7-methoxy-1-(pyrazin-2-ylmethyl)-1H-indol-2-yl)-1-methyl-1,6,7,8-tetrahydro-5H-imidazo[4,5-g]isoquinolin-5-one] | 101 to 500 nM |
| COc1cccc2cc(-c3nc4cc5c(cc4n3C)CCN(C[C@H](N)CF)C5=O)n(Cc3nc(C)no3)c12 [Example 129, (S)-6-(2-amino-3-fluoropropyl)-2-(7-methoxy-1-((3-methyl-1,2,4-oxadiazol-5-yl)methyl)-1H-indol-2-yl)-1-methyl-1,6,7,8-tetrahydro-5H-imidazo[4,5-g]isoquinolin-5-one] | 101 to 500 nM |
| COc1cccc2cc(-c3nc4cc5c(cc4n3C)CCN(C[C@H](N)CF)C5=O)n(C[C@H]3CCCO3)c12 [Example 132, 6-((S)-2-amino-3-fluoropropyl)-2-(7-methoxy-1-(((R)-tetrahydrofuran-2-yl)methyl)-1H-indol-2-yl)-1-methyl-1,6,7,8-tetrahydro-5H-imidazo[4,5-g]isoquinolin-5-one] | 101 to 500 nM |
| COc1cccc2cc(-c3nc4cc5c(cc4n3C)CCN(C[C@H](N)CF)C5=O)n(C[C@@H]3CCCO3)c12 [Example 133, 6-((S)-2-amino-3-fluoropropyl)-2-(7-methoxy-1-(((S)-tetrahydrofuran-2-yl)methyl)-1H-indol-2-yl)-1-methyl-1,6,7,8-tetrahydro-5H-imidazo[4,5-g]isoquinolin-5-one] | 101 to 500 nM |
| CCn1c(-c2nc3cc4c(cc3n2C)CCN(C[C@H](N)CF)C4=O)cc2ccccc21 [Example 134, (S)-6-(2-amino-3-fluoropropyl)-2-(1-ethyl-1H-indol-2-yl)-1-methyl-1,6,7,8-tetrahydro-5H-imidazo[4,5-g]isoquinolin-5-one] | > 1000 nM |
| COc1cccc2cc(-c3nc4cc5c(cc4n3C)CCN(C[C@H](N)CF)C5=O)n(Cc3cc(Cl)no3)c12 [Example 136, (S)-6-(2-amino-3-fluoropropyl)-2-(1-((3-chloroisoxazol-5-yl)methyl)-7-methoxy-1H-indol-2-yl)-1-methyl-1,6,7,8-tetrahydro-5H-imidazo[4,5-g]isoquinolin-5-one] | 101 to 500 nM |
| COc1cccc2cc(-c3nc4cc5c(cc4n3C)CCN(C[C@H](N)CF)C5=O)n(Cc3cc(C#N)no3)c12 [Example 137, (S)-5-((2-(6-(2-amino-3-fluoropropyl)-1-methyl-5-oxo-5,6,7,8-tetrahydro-1H-imidazo[4,5-g]isoquinolin-2-yl)-7-methoxy-1H-indol-1-yl)methyl)isoxazole-3-carbonitrile] | 101 to 500 nM |
| COc1cccc2cc(-c3nc4cc5c(cc4n3C)CCN(C[C@H](N)CF)C5=O)n(Cc3ccoc3)c12 [Example 138, (S)-6-(2-amino-3-fluoropropyl)-2-(1-(furan-3-ylmethyl)-7-methoxy-1H-indol-2-yl)-1-methyl-1,6,7,8-tetrahydro-5H-imidazo[4,5-g]isoquinolin-5-one] | 101 to 500 nM |
| COc1cccc2cc(-c3nc4cc5c(cc4n3C)CCN(C[C@H](N)CF)C5=O)n(Cc3oncc3C)c12 [Example 139, (S)-6-(2-amino-3-fluoropropyl)-2-(7-methoxy-1-((4-methylisoxazol-5-yl)methyl)-1H-indol-2-yl)-1-methyl-1,6,7,8-tetrahydro-5H-imidazo[4,5-g]isoquinolin-5-one] | 101 to 500 nM |
| COc1cccc2cc(-c3nc4cc5c(cc4n3C)CCN(C[C@H](N)CF)C5=O)n(Cc3ccc(C#N)o3)c12 [Example 140, (S)-5-((2-(6-(2-amino-3-fluoropropyl)-1-methyl-5-oxo-5,6,7,8-tetrahydro-1H-imidazo[4,5-g]isoquinolin-2-yl)-7-methoxy-1H-indol-1-yl)methyl)furan-2-carbonitrile] | 11 to 100 nM |
| COc1cccc2cc(-c3nc4cc5c(cc4n3C)CCN(C[C@H](N)CF)C5=O)n(Cc3ccco3)c12 [Example 141, (S)-6-(2-amino-3-fluoropropyl)-2-(1-(furan-2-ylmethyl)-7-methoxy-1H-indol-2-yl)-1-methyl-1,6,7,8-tetrahydro-5H-imidazo[4,5-g]isoquinolin-5-one] | 101 to 500 nM |
| COc1cccc2cc(-c3nc4cc5c(cc4n3C)CCN(C[C@H](N)CF)C5=O)n(Cc3ocnc3C)c12 [Example 142, (S)-6-(2-amino-3-fluoropropyl)-2-(7-methoxy-1-((4-methyloxazol-5-yl)methyl)-1H-indol-2-yl)-1-methyl-1,6,7,8-tetrahydro-5H-imidazo[4,5-g]isoquinolin-5-one] | 101 to 500 nM |
| COc1cccc2cc(-c3nc4cc5c(cc4n3C)CCN(C[C@H](N)CF)C5=O)n(Cc3ccc(C)o3)c12 [Example 143, (S)-6-(2-amino-3-fluoropropyl)-2-(7-methoxy-1-((5-methylfuran-2-yl)methyl)-1H-indol-2-yl)-1-methyl-1,6,7,8-tetrahydro-5H-imidazo[4,5-g]isoquinolin-5-one] | 101 to 500 nM |
